pIC50: −log10 of the molar value.
Biological target: T1, mPGES-1 (Homo sapiens, UniProt O14684)
T1 construct: made in house; host or cells: E. coli (membrane fraction)
T1 sequence (O14684 1-152): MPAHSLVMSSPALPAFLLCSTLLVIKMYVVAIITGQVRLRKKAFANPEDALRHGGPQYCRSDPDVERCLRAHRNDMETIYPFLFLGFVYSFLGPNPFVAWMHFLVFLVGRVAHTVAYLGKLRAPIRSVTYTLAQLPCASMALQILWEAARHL
Assay: mPGES-1 assay: conversion of PGH2 to PGE2, HPLC analysis
Assay type: biochemical
Settings: mPGES-1 expressed in E. coli; 25 min preincubation with inhibitor, 60 s with PGH2, room temperature
Experimental: In the assay in PGES-1 catalyses the reaction where the substrate PGH2 is converted to PGE2. mPGES-1 is expressed in E. coli and the membrane fraction is dissolved in 20 mM NaPi-buffer pH 8.0 and stored at −80° C. In the assay mPGES-1 is dissolved in 0.1M KPi-buffer pH 7.35 with 2.5 mM glutathione. The stop solution consists of H2O/MeCN (7/3), containing FeCl2 (25 mM) and HCl (0.15 M). The assay is performed at room temperature in 96-well plates. Analysis of the amount of PGE2 is performed with reversed phase HPLC (Waters 2795 equipped with a 3.9×150 mm C18 column). The mobile phase consists of H2O/MeCN (7/3), containing TFA (0.056%), and absorbance is measured at 195 nm with a Waters 2487 LTV-detector.
The following is added chronologically to each well: • 1. 100 μL mPGES-1 in KPi-buffer with glutathione. Total protein concentration: 0.02 mg/mL. • 2. 1 μL inhibitor in DMSO. Incubation of the plate at room temperature for 25 minutes. • 3. 4 μL of a 0.25 mM PGH2 solution. Incubation of the plate at room temperature for 60 seconds. • 4. 100 μL stop solution. • 180 μL per sample is analyzed with HPLC.

pIC50	Compound
5.64	CC(C)Oc1ccc(-n2c(C(=O)O)cc3cc(Oc4cccc(C(F)(F)F)c4)ncc32)cc1 [Example 1, 1-(4-Isopropoxyphenyl)-5-(3-trifluoromethylphenoxy)pyrrolo[2,3-c]pyridine-2-carboxylic Acid]
6.12	CC(C)Oc1ccc(-n2c(C(=O)O)cc3c(-c4ccc(C(F)(F)F)cc4)nc(Cl)cc32)cc1 [Example 3, 6-Chloro-1-(4-isopropoxyphenyl)-4-(4-trifluoromethylphenyl)pyrrolo[3,2-c]pyridine-2-carboxylic acid]

— patent US20090048285A1, “Pyrrolopyridines Useful in the Treatment of Inflammation” (priority 2005, published 2009)
